# Measurements published in a melting point compilation (Tetko et al.; mined from patent text by program, amines drawn as free bases though some values may be those of a salt).
row,SMILES,melting point
1,N#CN1CCC(c2nsc3ccccc23)CC1,118 to 120 °C
2,COC1CCC2C3CCc4cc(O)c(C=O)cc4C3CCC12C (configuration not stated),120 to 121 °C
3,BrCCC1(c2ccccc2)OCCO1,57 to 58 °C
4,Cc1cccc(C)c1NCC(=O)c1ccc(Cl)cc1,82 °C
5,CC1CCCN1CC=CC(=O)Nc1cc2c(Nc3ccc(F)c(Cl)c3)ncnc2cc1OCC1CC1 (configuration not stated),108 to 110 °C
6,Cc1cccc2n[nH]c(=O)n12,182 to 183 °C
7,C[C@@H]1OCCN(c2nc(N3CCOCC3)nc(-n3c(C(F)F)nc4ccccc43)n2)[C@@H]1C (relative stereo),176 to 178 °C
8,CCCCCCCCN1N=C(C)CC1=O,59 °C
9,CC(=O)OC1CSC(Oc2cncc(-c3ccc(F)cc3C)c2)C(OC(C)=O)C1OC(C)=O (configuration not stated),120 °C
10,N#CC(C=O)c1cccc(C(F)(F)F)c1 (configuration not stated),103 to 106 °C
11,N#Cc1nn(-c2c(Cl)cc(C(F)(F)F)cc2Cl)c(NCc2cnccn2)c1S(=O)C(F)(F)F (configuration not stated),169 °C
12,O=c1[nH]c(C2(F)CC2)nc2c1cnn2-c1ncc(C(F)(F)F)cc1Cl,211 °C
13,COc1cc2c(cc1Br)CC=C2CCNC(=O)C(F)(F)F,126 to 129 °C
14,Cc1ncoc1C(=O)c1ccccc1,84 to 86 °C
15,Fc1ccc(C(F)(F)C(F)(F)c2ccccc2Br)cc1,52 to 53.5 °C
16,O=C1C(=O)c2ccccc2C2=C1SCC1(CCSCC1)O2,221 to 223 °C
17,COc1ccc(N2CCN(CC[C@H]3CC[C@H](NC(=O)N(C)C)CC3)CC2)c(Cl)c1Cl,196 to 198 °C
18,CCOP(=O)(CN(Cc1ccncc1)C(=O)Cc1cc(C(C)(C)C)c(O)c(C(C)(C)C)c1)OCC,160 to 162 °C
19,O=c1n(CCCC2CCCC2)ccn1-c1ccc(NS(=O)(=O)c2ccc3c(c2)CCC(CNCC(O)c2cccnc2)O3)cc1 (configuration not stated),90 to 92 °C
20,COC(=O)OC1CCC2C3CCC4=CC(=O)CCC4(C)C3CCC12C (configuration not stated),140 to 141 °C
21,Cc1ccc(-c2ccc(C(=O)Nc3cc4ncc(CN5CCCC5)cc4cc3C)cc2)cc1,191 to 193 °C
22,COc1cc(C)c(Cl)cn1,32 to 33 °C
23,CCN1C=C(C(=O)OC)C(=O)CC1c1ccc(N(C)C)cc1 (configuration not stated),85 to 87 °C

row,SMILES,melting point
1,CNC(=S)NCc1cc(-c2ccc(Cl)cc2)no1,135 °C
2,OC(=S)c1c(F)cccc1-c1ccccc1,152 to 156 °C
3,CN1CCC(C(=O)NO)(S(=O)(=O)c2ccc(Oc3ccc(Cl)cc3)cc2)CC1,52 °C
4,CCCCNc1ccc2n[nH]c(=O)n2n1,259 to 261 °C
5,COc1ccc(-n2nc(C(C)(C)C)cc2NC(=O)c2cccc3cc(Oc4cc(Cl)ncn4)ccc23)cc1,163 to 164 °C
6,CCCCCCCCOC(=O)C(=C1SCCS1)c1cccc(C(F)(F)F)c1,42 to 43 °C
7,CC1(C)c2cc3[nH]c(-c4ccncc4)nc3cc2C(=O)NC1O (configuration not stated),260 to 268 °C
8,N#CC(CC(=O)c1ccc(C(F)(F)F)cc1)C1CC1 (configuration not stated),91 to 93 °C
9,NC(=S)c1sc(N2CCCC2)nc1N,264 to 265 °C
10,CC(=O)N1c2ccc(-c3ccc(C(=O)O)cc3)cc2[C@H](Nc2ccc(Cl)cc2)C[C@@H]1C,275 °C
11,COc1ccncc1-c1cncc(OC2SCC(O)C(O)C2O)c1 (configuration not stated),154 °C
12,CCCc1cc(=O)n(-c2cc(OC(C)C)c(Cl)cc2F)c(=O)n1C,115 to 117 °C
13,CCCCCCCCC(SCCCCCC)C(=O)Nc1c(OC)cc(Cl)c2ncccc12 (configuration not stated),110 to 111 °C
14,O=C(Nc1ccccn1)C(CC1CCCC1)c1ccc(C(F)(F)F)c(F)c1 (configuration not stated),40 to 44 °C
15,ON=c1cc(-c2cnccn2)ss1,262 °C
16,S=C=NCc1cc(-c2ccc(Cl)cc2)no1,74 to 76 °C
17,N#CCC[C@H]1CC[C@@H](c2ccc(F)cc2)N1S(=O)(=O)c1ccc(Cl)cc1 (racemic),108 °C
18,CC(C)(Cl)CC(=O)c1cc(C(C)(C)C)c(O)c(C(C)(C)C)c1,101 to 102 °C
19,CCc1cccc(CC)c1C(=O)Nc1nnc(C(C)(CC)CC)s1,186 to 188 °C
20,CCOC(=O)CCc1ccnc(O)c1,73 to 76.5 °C
21,CC(C)(C)c1ccc(CN=C=S)cc1,44 to 47 °C
22,CN1C(=O)C(c2ccc(OC(F)F)cc2)(c2cccc(C3CC(O)C3)c2)N=C1N (configuration not stated),186 to 190 °C
23,CC(C)(C)OC(=O)N1CC(c2n[nH]c(-c3ccccn3)n2)C1,220 °C

row,SMILES,melting point
1,CC/C(=C\CCC(O)(CC)CC)c1ccc(COc2ccc(CO)c(CO)c2)s1,82 °C
2,BrCc1cc2ccccc2cc1CBr,147 to 148 °C
3,Cc1ccc(S)c(C=O)c1,181 to 184 °C
4,O=C1CNC(c2ccc(Cl)cc2)=NN1CC(F)(F)F,178 to 180 °C
5,O=C1Nc2cc(-c3ccc(C(F)(F)F)cc3)ccc2C1c1cc(Cl)ccc1O (configuration not stated),221 to 225 °C
6,Cc1cccc(C(=O)COc2c(C(=O)c3ccc(Cl)c(C)c3Cl)c(C)nn2C)c1,153 °C
7,Cc1cccc(N2CCN(c3cc[nH]c(=S)c3C#N)CC2C)c1 (configuration not stated),250 to 251 °C
8,O=C(Nc1ccc(F)cc1)NC1CCN(S(=O)(=O)c2ccc(Cl)cc2)CC1,160 to 162 °C
9,COc1ccc2c(CN3CCC[C@H]3CO)cc3cc4c(cc3c2c1)OCO4,138 to 139 °C
10,CC(CCC(O)C(C)(C)O)C1CCC2C3CC=C4CC(O)CCC4(C)C3CCC12C (configuration not stated),195 to 199 °C
11,Nc1cccc(C=C2NC(=O)NC2=O)c1,280 to 284 °C
12,Brc1cccc2c1SSSSS2,93 to 98 °C
13,CCOC(=O)N1CCc2nc3ccc(N)cc3c(C)c2CC1,214 to 216 °C
14,C=CC[C@H]1C(=O)N(S(C)(=O)=O)[C@H]2CCN(C(=O)OCc3ccccc3)[C@H]12 (relative stereo),92 to 94 °C
15,C=CCNc1nc(C2C(=O)Nc3ccc(Br)cc32)c2cn(C)nc2n1 (configuration not stated),336 to 340 °C
16,Nc1c(Cl)c(C(=O)O)nc(Cl)c1Br,201 to 202 °C
17,NC(=O)Nc1cccc(CO)c1,188 to 202 °C
18,Nc1ccc2ccc(Cl)cc2n1,175 °C
19,CCOc1c(SC(F)(F)F)c(C#N)nn1-c1c(Cl)cc(C(F)(F)F)cc1Cl,106 °C
20,CC[C@]12CC[C@H]3[C@@H](CC(Cl)C4=CC(=O)CC[C@@H]43)[C@@H]1C=CC2=O (some centres not stated),136 °C
21,CC(C)(C)[Si](C)(C)Oc1ccc2cc(Br)ccc2c1,62 to 63 °C

# Further lines, results first:
row,melting point,SMILES
1,173 to 175 °C,Cc1cc(C)cc(C(=O)c2c(C(C)C)c(=O)[nH]c(=O)n2Cc2ccc(N)cc2)c1
2,> 250 °C,COc1ccccc1CN[C@H]1CCCN[C@H]1c1ccc2ccccc2c1 (relative stereo)
3,228 to 230 °C,CN1C(=O)N(c2ccc(Cl)cc2)S(=O)(=O)c2ccc(OCC(=O)O)cc21
4,149 to 150 °C,CCOC(=O)c1c(-c2ccc(OC)cc2)n2c3c(cccc13)OC(CCN1CCN(c3cc(C)ccn3)CC1)C2 (configuration not stated)
5,148 to 149 °C,Cc1c(NC(=O)c2ccc(OCC3CCOC3)cc2)ccc2cc(CNC3CCCC3)cnc12 (configuration not stated)
6,116 °C,c1ccc(OCCN2CCC(CNc3nc4ccccc4s3)CC2)cc1
7,205 to 208 °C,CS(=O)(=O)c1ccc(Oc2ccc3[nH]c(C4=NCC(CC(=O)O)S4)cc3c2)cn1 (configuration not stated)
8,182 to 183 °C,CCn1ncnc1COc1nn2c(-c3ccccc3F)nncc2c1-c1ccco1
9,147 to 148 °C,CCc1noc(-c2cn(-c3ccc(OC)cc3)cn2)n1
10,192 to 193 °C,Cc1[nH]cnc1/C=C/C(=O)c1coc2ccccc12
11,178 to 180 °C,Cc1ccccc1-n1c(C)nc2c(c1=O)N(Cc1ccccc1)NN2
12,110 to 111 °C,COC(=O)C1COc2c(C(=O)c3ccccc3)cc(C)cc21 (configuration not stated)
13,188 to 190 °C,COc1nc2ccc(Cl)cc2c(-c2ccccc2Cl)c1C(=O)O
14,150 °C,Cc1cc(COc2ccc(S(=O)(=O)NC[C@@H](C(=O)NO)N3CCCCC3)cc2)c2ccccc2n1
15,185 to 187 °C,COc1ccc(S(=O)(=O)Nc2ccccc2Nc2ccncc2)cc1
16,77 to 78 °C,CC(=O)n1ccc2c(C=O)ccc(OCc3ccccc3)c21
17,89 °C,O=S(=O)(CC1(c2ccccc2)CO1)c1ccccc1 (configuration not stated)
18,124 °C,COc1cc(-c2cccc(Cl)c2)c2cc(Br)ccc2n1

row,melting point,SMILES
1,160 °C,Cc1cc(-n2ccnc2)c2cccc(OCc3c(Cl)ccc(S(=O)(=O)N4CC[C@H]4C(=O)O)c3Cl)c2n1
2,214 °C,CN(c1cccc2cc(C3=NCC4(CCN(CCO)CC4)S3)[nH]c12)S(=O)(=O)c1cccs1
3,167 to 168 °C,COc1cc(CCCCC2OC(=O)NC2=O)ccc1OCc1csc(/C=C/c2ccccc2)n1 (configuration not stated)
4,> 250 °C,O=c1c(-c2ccccc2O)coc2cc(O)c(Cl)cc12
5,141 to 143 °C,COc1nc(CCc2cc(Br)ccc2OCc2ccccc2)ccc1C(=O)O
6,159 to 160 °C,C=C(C(=O)c1cc(OC)c(OC)c(-c2cccs2)c1)c1ccc(C(=O)O)cc1
7,227 to 228 °C,Cc1ccc(NC(=O)c2ccc3ncccc3c2)cc1NC(=O)c1ccc(OCc2ccccc2)cc1
8,218 to 220 °C,Nc1c(-c2ccc(Oc3ccccc3)cc2)nc2ccccc2c1C(=O)O
9,110 to 111 °C,COC(=O)c1cccc(N)c1NCc1ccc(-c2ccccc2C#N)cc1
10,153 to 155 °C,NC(=O)c1cccc2c1CC(NCCCc1c[nH]c3ccc(F)cc13)CO2 (configuration not stated)
11,210 to 211 °C,CCn1c(=O)c2cccnc2n(-c2cccc([N+](=O)[O-])c2)c1=O
12,301 to 305 °C,COc1ccc(-c2nnc3c4ccccc4c(Nc4ccc(NC(=O)c5ccccn5)cc4)nn23)cc1
13,263 to 265 °C,Cc1c(-c2ccccc2)[nH]c(=O)n1C1CCN(Cc2cccc(Br)c2)CC1
14,74 °C,Cc1cccc(-c2nc3ccc(OCCCN(C)C)cc3n2Cc2ccccc2C(F)(F)F)c1
15,97 to 100 °C,CC(=O)c1ccc2sc3ccccc3c2c1
16,208 to 211 °C,CNc1nc(-c2cncc(C#Cc3cccnc3)c2)c2cc(OC)c(OC)cc2n1
17,103 to 106 °C,COc1cc(CC(=O)NCCCOc2ccc(C)c(C)c2)ccc1OCCN
